Experimental data reported in US11666558B2, “Methods of treating intraocular pressure with activators of Tie-2” (EyePoint Pharmaceuticals, Inc., priority 2015, dated 2023).
“Also recorded” adds a separate entry of the source. Where a name gives a salt, the structure may show the parent alone. Read-outs that look alike come from different tables or passages of the source.

Key:
Format in all cases: in vivo, New Zealand White rabbits
[1] = General health observations after repeated dosing; settings: repeated topical (0.45 or 1.2 mg/eye) and subcutaneous (10 mg/kg) dosing over 7 days
Experimental: Animals were observed within their cages once daily throughout the study period. […] General health observations were recorded daily beginning on Day 1 and continuing throughout the course of the study.

[2] = Plasma concentrations and pharmacokinetic parameters after topical ocular, subcutaneous and intravitreal administration; settings: for AUC(0-t): read-out: AUClast (± SE); for concentration at 0.5 hr / concentration at 0.5 h: 0.50 hr
Experimental: To measure the concentration of Compound 1 in plasma and ocular tissues following topical ocular, subcutaneous, and intravitreal administration, New Zealand White rabbits were administered Compound 1, and plasma and ocular samples were collected at pre-determined time points. Compound 1 formulations were prepared fresh on each day of dosing.
New Zealand White rabbits weighing 2.5 to 3.5 kg were used on this study. Rabbits were housed one per cage. Animals were not fasted and only healthy animals with no ocular illness were used. Two rabbits per group were sacrificed at each of four ocular tissue sampling time points for a total of eight rabbits per group.
Animals were anesthetized for ocular (topical) and intravitreal dosing following the 12IA7 IACUC protocol. Each rabbit received a bolus dose of test formulation either via topical ocular administration 3 times daily on Days 1 and 2 (at 0, 6, and 12 hours), and once on Day 3 (at 0 hours) into both eyes; via intravitreal administration into both eyes once on Day 1 (at 0 hours); or via subcutaneous administration 2 times daily on Days 1 and 2 (at 0 and 8 hours) and once daily on Day 3 (at 0 hours). Doses were given within an approximately 1 hour window each day where applicable.
Each blood sample was collected on Day 3 post dose at pre-determined time points from the rabbits via an ear vessel and placed into chilled polypropylene tubes containing sodium heparin as an anticoagulant. Samples were spun by centrifuge at 4° C. and 3,000×g for 5 minutes. Samples were maintained chilled throughout processing. Each plasma sample was placed on dry ice and stored in a freezer at −60° C. to −80° C. pending bioanalysis.
An LC-MS/MS method was developed for the determination of Compound 1 in rabbit aqueous tissues (plasma, aqueous and vitreous humor) and solid ocular tissue samples. A pre-study standard curve was analyzed to determine the specificity, range, and lower limit of quantitation of the method. Plasma and tissue homogenate study samples were extracted and analyzed. All the samples were treated identically to the standards.
One eight-point standard curve was used in each analytical batch. To be accepted, each batch must have had at least five of eight standards with accuracy within ±20% of nominal, except at the lower limit of quantification (LLOQ), where ±25% was acceptable.
Pharmacokinetic parameters were calculated from the time course of the plasma concentration. The maximum plasma concentration (Cmax) and time to the maximum plasma drug concentration (Tmax) were the observed values for each concentration-time profiles. The area under the plasma drug concentration-time curve (AUClast, with last being from time 0 to the last quantifiable point) was calculated using the trapezoidal formula. The mean residence time MRTlast was calculated as a ratio of AUMClast (area under the first movement curve) to AUClast.

[3] = Ophthalmic examination (slit-lamp biomicroscopy, modified McDonald-Shadduck Scoring System) after repeated dosing
Experimental: Prior to placement on study, each animal underwent an ophthalmic examination (slitlamp biomicroscopy and indirect ophthalmoscopy). Ocular findings were scored according to a modified McDonald-Shadduck Scoring System and recorded on a standardized data sheet. The acceptance criteria for placement on study were scores of “0” for all variables.
Ophthalmic examination (slit-lamp biomicroscopy only) was performed at baseline (prior to the start of dosing) and on Days 1, 4, and 8. Ocular findings were scored according to a modified McDonald-Shadduck Scoring System. A slit lamp was used to observe conjunctival discharge, […], […], the cornea, the surface area of cornea involvement, pannus, pupillary response, aqueous flare, cellular flare, iris involvement, and the lens. An indirect ophthalmoscope was used to observe the vitreous, vitral hemorrhage, retinal detachment, retinal hemorrhage, and choroidal/retinal inflammation. Animals were prepared for observation by using a solution (atropine, tropicaminde, or phenylephrine) to dilate the pupils.
Conjunctival discharge was defined as a whitish gray precipitate from the eye. Scoring was as follows.
Conjunctival congestion causes the blood vessels of the eye to become enlarged. Scoring was as follows.
Conjunctival swelling, defined as swelling of the conjunctiva, was scored as follows.

[4] = New Zealand White, rabbit, plasma, other: intravitreal, 1.55 mg/kg, plasma, intravitreal 2.5 mg/eye (~1.55 mg/kg), solution
[5] = New Zealand White, rabbit, plasma, other: intravitreal, 2.5 mg, plasma, intravitreal 2.5 mg/eye (~1.55 mg/kg), solution
[6] = New Zealand White, rabbit, plasma, other: intravitreal, 2.5 mg/eye, intravitreal 2.5 mg/eye (~1.55 mg/kg), solution, read-out: plasma Average
[7] = New Zealand White, rabbit, plasma, other: intravitreal, 2.5 mg/eye, intravitreal 2.5 mg/eye (~1.55 mg/kg), solution, read-out: plasma Conc., individual rabbit
[8] = New Zealand White, rabbit, plasma, sc, 5 mg/kg, subcutaneous 5 mg/kg/dose, solution
[9] = New Zealand White, rabbit, plasma, subcutaneous, 5 mg/kg/dose, subcutaneous 5 mg/kg/dose, solution, read-out: plasma Average
[10] = New Zealand White, rabbit, plasma, subcutaneous, 5 mg/kg/dose, subcutaneous 5 mg/kg/dose, solution, read-out: plasma Conc., individual rabbit
[11] = New Zealand White, rabbit, plasma, topical or ocular, 0.7 mg/kg, topical ocular 1.2 mg/eye (~0.7 mg/kg/dose), solution
[12] = New Zealand White, rabbit, plasma, topical or ocular, 1.2 mg, topical ocular 1.2 mg/eye (~0.7 mg/kg/dose), solution
[13] = New Zealand White, rabbit, plasma, topical, 1.2 mg/eye, topical ocular 1.2 mg/eye (~0.7 mg/kg/dose), read-out: plasma Average
[14] = plasma, intravitreal solution, normalized by 1.55 mg/kg
[15] = plasma, subcutaneous solution, normalized by 5 mg/kg
[16] = subcutaneous administration, sodium salt solution

AUC(0-inf) [2, 4]: 956 ng·h/mL | Cmax [2, 4]: 39.8 ng/mL | MRT last [2, 4]: 15.1 h | half-life [2, 4]: 8.08 h | AUC(0-t) [2, 4]: 953 ng·h/mL | Tmax ([2]; New Zealand White, rabbit, plasma, other: intravitreal, 1.55 mg/kg, plasma, intravitreal 2.5 mg/eye (~1.55 mg/kg), solution, read-out: tmax): 3 h | AUC(0-inf) [2, 5]: 956 ng·h/mL | Cmax [2, 5]: 39.8 ± 2.3 ng/mL | MRT last [2, 5]: 15.1 h | half-life [2, 5]: 8.08 h | AUC(0-t) [2, 5]: 953 ± 91.1 ng·h/mL | Tmax ([2]; New Zealand White, rabbit, plasma, other: intravitreal, 2.5 mg, plasma, intravitreal 2.5 mg/eye (~1.55 mg/kg), solution, read-out: tmax): 3 h | concentration at 1 h ([2]; New Zealand White, rabbit, plasma, other: intravitreal, 2.5 mg/eye, intravitreal 2.5 mg/eye (~1.55 mg/kg), solution, 1.0 hr, read-out: plasma Average): 32.3 ng/mL | concentration at 1 h ([2]; New Zealand White, rabbit, plasma, other: intravitreal, 2.5 mg/eye, intravitreal 2.5 mg/eye (~1.55 mg/kg), solution, 1.0 hr, read-out: plasma Conc., individual rabbit): 33.2 ng/mL | concentration at 3 h [2, 6]: 39.8 ng/mL | concentration at 3 h [2, 7]: 37.5 ng/mL | concentration at 6 h ([2]; New Zealand White, rabbit, plasma, other: intravitreal, 2.5 mg/eye, intravitreal 2.5 mg/eye (~1.55 mg/kg), solution, 6.0 hr, read-out: plasma Average): 36.8 ng/mL | concentration at 6 hr ([2]; New Zealand White, rabbit, plasma, other: intravitreal, 2.5 mg/eye, intravitreal 2.5 mg/eye (~1.55 mg/kg), solution, 6.0 hr, read-out: plasma Conc., individual rabbit): 44.3 ng/mL | concentration at 24 hr [2, 6]: 16.9 ng/mL | concentration at 24 hr [2, 7]: 19 ng/mL | concentration at 48 hr [2, 6]: 2.58 ng/mL | concentration at 48 hr [2, 7]: 2.7 ng/mL | concentration at 72 hr [2, 6]: 0.27 ng/mL | concentration at 72 hr [2, 7]: 0.215 ng/mL | AUC(0-t) ([2]; New Zealand White, rabbit, plasma, sc, 5 mg/kg, plasma, subcutaneous 5 mg/kg/dose, solution): 1560 ± 195 ng·h/mL | Tmax ([2]; New Zealand White, rabbit, plasma, sc, 5 mg/kg, plasma, subcutaneous 5 mg/kg/dose, solution, read-out: tmax): 0.25 h | Tmax ([2]; New Zealand White, rabbit, plasma, sc, 5 mg/kg, subcutaneous administration, solution, read-out: Mean plasma Tmax (converted)): 0.25 h | AUC(0-inf) [2, 8]: 1560 ng·h/mL | Cmax [2, 8]: 1520 ± 115 ng/mL | MRT last [2, 8]: 0.87 h | half-life [2, 8]: 0.47 h | concentration at 0.25 hr [2, 9]: 1520 ng/mL | concentration at 0.25 hr [2, 10]: 1640 ng/mL | concentration at 0.5 hr [2, 9]: 1100 ng/mL | concentration at 0.5 hr [2, 10]: 883 ng/mL | concentration at 1 hr ([2]; New Zealand White, rabbit, plasma, subcutaneous, 5 mg/kg/dose, subcutaneous 5 mg/kg/dose, solution, 1.0 hr, read-out: plasma Average): 646 ng/mL | concentration at 1 h ([2]; New Zealand White, rabbit, plasma, subcutaneous, 5 mg/kg/dose, subcutaneous 5 mg/kg/dose, solution, 1.0 hr, read-out: plasma Conc., individual rabbit): 664 ng/mL | concentration at 2 h ([2]; New Zealand White, rabbit, plasma, subcutaneous, 5 mg/kg/dose, subcutaneous 5 mg/kg/dose, solution): 180 ng/mL | concentration at 4 h [2, 9]: 7.76 ng/mL | concentration at 4 h [2, 10]: 7.98 ng/mL | AUC(0-t) ([2]; New Zealand White, rabbit, plasma, topical or ocular, 0.7 mg/kg, plasma, topical ocular 1.2 mg/eye (~0.7 mg/kg/dose), solution): 11.8 ng·h/mL | Tmax ([2]; New Zealand White, rabbit, plasma, topical or ocular, 0.7 mg/kg, plasma, topical ocular 1.2 mg/eye (~0.7 mg/kg/dose), solution, read-out: tmax): 4 h | Cmax [2, 11]: 7.48 ng/mL | MRT last [2, 11]: 2.98 h | AUC(0-t) ([2]; New Zealand White, rabbit, plasma, topical or ocular, 1.2 mg, plasma, topical ocular 1.2 mg/eye (~0.7 mg/kg/dose), solution): 11.8 ± 5.7 ng·h/mL | Tmax ([2]; New Zealand White, rabbit, plasma, topical or ocular, 1.2 mg, plasma, topical ocular 1.2 mg/eye (~0.7 mg/kg/dose), solution, read-out: tmax): 4 h | Cmax [2, 12]: 7.48 ± 5.53 ng/mL | MRT last [2, 12]: 2.98 h | concentration at 0.5 h [2, 13]: 3.03 ng/mL | concentration at 0.5 h ([2]; New Zealand White, rabbit, plasma, topical, 1.2 mg/eye, topical ocular 1.2 mg/eye (~0.7 mg/kg/dose), read-out: plasma Conc., individual rabbit): 3.84 ng/mL | concentration at 1 h ([2]; New Zealand White, rabbit, plasma, topical, 1.2 mg/eye, topical ocular 1.2 mg/eye (~0.7 mg/kg/dose), 1.0 hr, read-out: plasma Average): 1.46 ng/mL | concentration at 1 h ([2]; New Zealand White, rabbit, plasma, topical, 1.2 mg/eye, topical ocular 1.2 mg/eye (~0.7 mg/kg/dose), 1.0 hr, read-out: plasma Conc., individual rabbit): 1.28 ng/mL | concentration at 2 h ([2]; New Zealand White, rabbit, plasma, topical, 1.2 mg/eye, topical ocular 1.2 mg/eye (~0.7 mg/kg/dose)): 1.14 ng/mL | concentration at 4 h [2, 13]: 7.48 ng/mL | Mean plasma Cmax, fold higher than Compound 1 (free acid) suspension ([2]; intravitreal administration, sodium salt solution): approximately 2 fold | Dose normalized AUClast [2, 14]: 615 kg·ng·h/mL/mg | Dose normalized AUC∞ [2, 14]: 617 kg·ng·h/mL/mg | Dose normalized AUClast ([2]; plasma, intravitreal solution, normalized by 1.55 mg/kg, listed as Compound 1 (sodium salt)): 615 ± 58.8 kg·ng·h/mL/mg | Dose normalized AUClast [2, 15]: 311 kg·ng·h/mL/mg | Dose normalized AUC∞ [2, 15]: 312 kg·ng·h/mL/mg | Dose normalized AUClast ([2]; plasma, subcutaneous solution, normalized by 5 mg/kg, listed as Compound 1 (sodium salt)): 311 ± 38.9 kg·ng·h/mL/mg | Dose normalized AUClast ([2]; plasma, topical ocular, normalized by 0.7 mg/kg): 16.8 kg·ng·h/mL/mg | Dose normalized AUClast ([2]; plasma, topical ocular, normalized by 0.7 mg/kg, listed as Compound 1 (sodium salt)): 16.8 ± 8.15 kg·ng·h/mL/mg | Mean plasma AUClast, fold higher than Compound 1 (free acid) suspension [2, 16]: approximately 2 fold | Mean plasma Cmax, fold higher than Compound 1 (free acid) suspension [2, 16]: approximately 3 fold | mild conjunctival congestion (scores=1), animals affected ([3]; Group 2, 0.45 mg/eye topical BID, Day 1): all five animals | mild conjunctival congestion (scores=1), animals affected ([3]; Group 2, 0.45 mg/eye topical BID, Day 4): two animals | mild conjunctival congestion (scores=1), animals affected ([3]; Group 3, 1.2 mg/eye topical BID, Day 1): two animals | mild conjunctival congestion (scores=1), animals affected ([3]; Group 3, 1.2 mg/eye topical BID, Day 4): two animals | mild conjunctival congestion (scores=1), animals affected ([3]; Group 4, 1.2 mg/eye topical QD, Day 1): one animal | mild conjunctival congestion (scores=1), animals affected ([3]; Group 4, 1.2 mg/eye topical QD, Day 4): one animal | mild conjunctival congestion (scores=1), animals affected ([3]; Group 5, 10 mg/kg subcutaneous BID, Day 1): three animals | mild conjunctival congestion (scores=1), animals affected ([3]; Group 5, 10 mg/kg subcutaneous BID, Day 4): none | ocular anomalies ([3]; all groups, Day 8): No ocular anomalies
Compound: COC(=O)N[C@@H](Cc1ccccc1)C(=O)N[C@@H](Cc1ccc(NS(=O)(=O)O)cc1)c1csc(-c2cccs2)n1 [Compound 1 sodium salt]
general health [1]: normal health and activity; also recorded: No adverse effects | relation of mild conjunctival congestion to the test article ([3]; repeated topical and subcutaneous dosing): appeared to be unrelated to the test article
